One assay concerns Human venous whole blood. In words: Human whole blood IFN-γ assay.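 Note: blood from healthy donors exposed to compound for 1 h before stimulation with anti-CD3 and anti-CD28 at 1 µg/mL each, IFN-γ quantified in supernatant by AlphaLISA.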 Conditions: human whole blood, normalized to 3 μM reference compound with anti-CD3 plus anti-CD28 as 100% activation, read-out: INFg Whole Blood Normalized Agonist EC50. It is filed as cell-based.
Another assay deals with T1, human DGKα (Homo sapiens, UniProt P23743).
T1 construct: TVMV protease cleavage site (C); Hexa-His (C); made in house; host or cells: Sf9 insect cells (baculovirus, Bac-to-Bac)
In words: DGKα LIPGLO assay (extruded liposome substrate), in vitro DGK inhibition. The conditions noted are these: liposome (LIPGLO) assay; read-out: DGKa LIPGLO IC50. The format is biochemical.

Assay [1] deals with OT-1 CD8+ T cells with SIINFEKL-loaded MC38 tumor cells. The assay is described as follows: Murine cytotoxic T lymphocyte assay (IFN-γ, OT-1 CTL with MC38 tumor cells). The conditions noted are these: read-out: msCTL INFg IC50. It is filed as cell-based, mouse. An outline of the steps: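 OT-1 CD8+ T cells, expanded 5 days with OVA peptide (1 μg/mL) and mIL2, pretreated 1 h with DGK inhibitors, then co-cultured overnight at 37° C at 1:10 with MC38 cells pulsed 3 h with 1 μg/mL SIINFEKL. IFN-γ in 24 h supernatant by AlphaLISA.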

Another assay relates to naïve human CD8 T cells. In words: Human CD8 T cells IFN-γ assay.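 Note: Naïve human CD8 T cells stimulated with plate-bound anti-CD3 and soluble anti-CD28, IFN-γ in supernatant quantified by AlphaLISA and converted to pg/mL.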 It is filed as cell-based. Conditions: normalized to 3 μM reference compound with anti-CD3 plus anti-CD28 as 100% activation, read-out: HuCD8 INFG Normalized EC50.
For another assay, the target named is T2, human DGKζ (Homo sapiens, UniProt Q13574).
T2 construct: TVMV protease cleavage site (C); Hexa-His (C); made in house; host or cells: Sf9 insect cells (baculovirus, Bac-to-Bac)
The assay is described as follows: DGKζ LIPGLO assay (extruded liposome substrate), in vitro DGK inhibition. The format is biochemical. Conditions: liposome (LIPGLO) assay; read-out: DGKz LIPGLO IC50.

Read-outs that look alike come from different tables or passages of the source.

T2 sequence (Q13574 with tags, fused parts or gaps isoform Q13574-4): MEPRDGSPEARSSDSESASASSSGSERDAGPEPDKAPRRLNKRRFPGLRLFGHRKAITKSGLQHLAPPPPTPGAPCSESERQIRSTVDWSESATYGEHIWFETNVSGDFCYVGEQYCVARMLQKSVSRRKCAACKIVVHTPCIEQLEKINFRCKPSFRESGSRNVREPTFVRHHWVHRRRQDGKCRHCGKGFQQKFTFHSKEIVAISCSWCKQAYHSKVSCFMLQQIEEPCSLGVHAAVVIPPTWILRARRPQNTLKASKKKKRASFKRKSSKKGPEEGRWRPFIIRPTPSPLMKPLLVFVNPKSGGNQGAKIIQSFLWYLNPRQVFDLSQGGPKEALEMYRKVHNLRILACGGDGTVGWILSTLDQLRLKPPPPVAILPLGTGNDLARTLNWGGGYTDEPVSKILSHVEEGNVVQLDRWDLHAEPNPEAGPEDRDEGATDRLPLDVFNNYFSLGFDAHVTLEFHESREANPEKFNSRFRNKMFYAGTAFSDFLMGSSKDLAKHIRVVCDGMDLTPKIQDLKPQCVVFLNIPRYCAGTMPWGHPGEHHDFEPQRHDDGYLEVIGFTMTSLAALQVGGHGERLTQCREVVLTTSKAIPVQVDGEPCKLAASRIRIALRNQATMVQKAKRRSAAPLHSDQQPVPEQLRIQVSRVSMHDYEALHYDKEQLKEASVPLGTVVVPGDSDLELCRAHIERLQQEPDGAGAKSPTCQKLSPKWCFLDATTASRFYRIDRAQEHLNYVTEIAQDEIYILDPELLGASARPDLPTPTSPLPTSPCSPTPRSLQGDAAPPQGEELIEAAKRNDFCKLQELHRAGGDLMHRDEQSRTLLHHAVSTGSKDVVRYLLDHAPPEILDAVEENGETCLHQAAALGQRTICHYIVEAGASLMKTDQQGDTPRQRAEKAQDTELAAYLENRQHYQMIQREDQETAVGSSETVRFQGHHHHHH
T1 sequence (P23743 with tags, fused parts or gaps): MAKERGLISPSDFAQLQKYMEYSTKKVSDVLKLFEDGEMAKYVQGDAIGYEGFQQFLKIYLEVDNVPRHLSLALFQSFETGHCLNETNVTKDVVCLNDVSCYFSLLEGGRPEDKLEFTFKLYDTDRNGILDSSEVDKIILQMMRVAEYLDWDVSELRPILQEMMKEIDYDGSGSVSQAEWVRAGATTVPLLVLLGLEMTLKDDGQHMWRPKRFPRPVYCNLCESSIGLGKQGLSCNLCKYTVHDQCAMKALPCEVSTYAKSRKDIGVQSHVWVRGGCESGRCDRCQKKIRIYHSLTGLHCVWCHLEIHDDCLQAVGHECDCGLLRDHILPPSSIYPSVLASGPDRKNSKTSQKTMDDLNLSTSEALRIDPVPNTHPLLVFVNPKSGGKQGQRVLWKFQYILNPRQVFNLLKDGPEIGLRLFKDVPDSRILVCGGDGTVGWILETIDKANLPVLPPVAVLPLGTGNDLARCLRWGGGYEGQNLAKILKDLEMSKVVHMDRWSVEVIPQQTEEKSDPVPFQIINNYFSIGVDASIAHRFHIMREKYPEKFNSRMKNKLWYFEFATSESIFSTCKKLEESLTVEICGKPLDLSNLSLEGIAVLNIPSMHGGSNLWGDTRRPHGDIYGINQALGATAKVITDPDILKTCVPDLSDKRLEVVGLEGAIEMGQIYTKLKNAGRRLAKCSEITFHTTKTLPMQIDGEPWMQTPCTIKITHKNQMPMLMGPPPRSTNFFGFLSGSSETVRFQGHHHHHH
Protocol for Human venous whole blood: Human Whole Blood IFN-γ Assay
Human venous whole blood (22.5 μL per well), obtained from healthy donors, was pre-treated with compounds for one hour at 37° C. in a humidified 95% air/5% CO2 incubator. The blood was stimulated with 2.5 μL anti-human CD3 and anti-CD28 mAb at a final concentration of 1 μg/mL each for 24 hours at 37° C. IFN-γ in the supernatants was measured using AlphLISA kit (Cat # AL217).

The term EC50 denotes the concentration needed to bring the measured effect to its halfway point. In general, IC50 refers to the concentration that inhibits the measured activity by half. Consider `Cc1cc(C2CN(c3cc(=O)n(C)c4ccc(C#N)nc34)CC(C)N2C(c2ccc(F)cc2)c2ccc(F)cc2)ccn1` (stereo not shown) [Example 84, 8-(4-(bis(4-fluorophenyl)methyl)-3-methyl-5-(2-methylpyridin-4-yl)piperazin-1-yl)-5-methyl-6-oxo-5,6-dihydro-1,5-naphthyridine-2-carbonitrile], for which the EC50 in the assay on Human venous whole blood (Homo sapiens, 24 h) was 20000 nM; in the assay with naïve human CD8 T cells (Homo sapiens, T-cell, 20 h), 10000 nM. For the same compound, the IC50 amounted to 81000 nM at human DGKα; 10000 nM in assay [1] (Mus musculus, MC-38); 240000 nM at human DGKζ.

`Cc1c(N2CCN(C(c3ccc(F)cc3)c3ccc(F)cc3)[C@H](C)C2)c2nc(C#N)ccc2n(C)c1=O` [Example 99, (R)-8-(4-(bis(4-fluorophenyl)methyl)-3-methylpiperazin-1-yl)-5,7-dimethyl-6-oxo-5,6-dihydro-1,5-naphthyridine-2-carbonitrile]: the EC50 with Human venous whole blood (Homo sapiens, 24 h) came to 2800 nM; in the assay on naïve human CD8 T cells (Homo sapiens, T-cell, 20 h), 170 nM. In addition, the IC50 on human DGKα was determined as 7000 nM; in assay [1] (Mus musculus, MC-38), 1200 nM; at human DGKζ, 2800 nM.

Take `CC(C)[C@@H]1CN(c2c(C#N)c(=O)n(C)c3ccc(C#N)nc23)CCN1C(c1ccc(F)cc1)c1ccc(F)cc1` [Example 169, (R)-8-(4-(bis(4-fluorophenyl)methyl)-3-isopropylpiperazin-1-yl)-5-methyl-6-oxo-5,6-dihydro-1,5-naphthyridine-2,7-dicarbonitrile]: the EC50 in the assay with Human venous whole blood (Homo sapiens, 24 h) was determined as 13000 nM; in the assay on naïve human CD8 T cells (Homo sapiens, T-cell, 20 h), 440 nM. Further, the half-maximal inhibitory concentration (IC50) at human DGKα is 3200 nM; in assay [1] (Mus musculus, MC-38), 2600 nM; at human DGKζ, 77000 nM.

As for `C[C@@H]1CN(c2c(C#N)c(=O)n(C)c3ccc(C#N)nc23)CCN1C(c1ccc(F)cc1)c1ccc(F)cc1` [Example 32, (R)-8-(4-(bis(4-fluorophenyl)methyl)-3-methylpiperazin-1-yl)-5-methyl-6-oxo-5,6-dihydro-1,5-naphthyridine-2,7-dicarbonitrile], the 50% effective concentration (EC50) with Human venous whole blood (Homo sapiens) was determined as 400 nM; with naïve human CD8 T cells (Homo sapiens, T-cell, 20 h), 17 nM. The IC50 on human DGKα came out at 980 nM; in assay [1] (Mus musculus, MC-38), 43 nM; at human DGKζ it was 850 nM.

On to `Cn1c(=O)cc(N2CCN(C(c3ccc(F)cc3)c3ccc(F)cc3)C(C(N)=O)C2)c2nc(C#N)ccc21` (single isomer, unassigned) [Example 42, 1-(bis(4-fluorophenyl)methyl)-4-(6-cyano-1-methyl-2-oxo-1,2-dihydro-1,5-naphthyridin-4-yl)piperazine-2-carboxamide], for which the concentration giving a half-maximal response (EC50) in the assay on Human venous whole blood (Homo sapiens, 24 h) stood at 3100 nM; with naïve human CD8 T cells, 610 nM. Moreover, the IC50 on human DGKα stood at 180000 nM; in assay [1] (Mus musculus, MC-38) it was 2600 nM; at human DGKζ, 9700 nM.

Take `Cc1ccc(C(c2ccc(F)cc2)N2C[C@H](C)N(c3cc(=O)n(C)c4ccc(C#N)nc34)C[C@H]2C)cc1` (single isomer, unassigned) [Example 252]: the EC50 was determined as 430 nM with Human venous whole blood and 160 nM with naïve human CD8 T cells. The results for the IC50 (at human DGKα; in assay [1]; at human DGKζ) were 660 nM, 22 nM and 440 nM, respectively.

For `CC[C@@H]1CN(c2c(Cl)c(=O)n(C)c3ccc(C#N)nc23)CCN1C(c1ccc(F)cc1)c1ccc(F)cc1` [Example 175, (R)-8-(4-(bis(4-fluorophenyl)methyl)-3-ethylpiperazin-1-yl)-7-chloro-5-methyl-6-oxo-5,6-dihydro-1,5-naphthyridine-2-carbonitrile], the EC50 amounted to 4300 nM with Human venous whole blood (Homo sapiens, 24 h) and 51 nM in the assay with naïve human CD8 T cells (Homo sapiens, T-cell, 20 h). In addition, the IC50 was 2400 nM on human DGKα; 610 nM in assay [1] (Mus musculus, MC-38); 330 nM at human DGKζ.

Regarding `C[C@@H]1CN(c2cc(=O)n(C)c3ccc(C#N)nc23)[C@@H](C)CN1Cc1ccc(F)c(F)c1` [Example 291, 8-[(2S,5R)-4-[(3,4-difluorophenyl)methyl]-2,5-dimethylpiperazin-1-yl]-5-methyl-6-oxo-5,6-dihydro-1,5-naphthyridine-2-carbonitrile], the concentration giving a half-maximal response (EC50) with Human venous whole blood (Homo sapiens, 24 h) amounted to 1300 nM; with naïve human CD8 T cells (Homo sapiens, T-cell, 20 h) it was 34 nM. Besides, the IC50 on human DGKα is 600 nM; in assay [1] (Mus musculus, MC-38), 470 nM; at human DGKζ it was 1500 nM.

Take `CC[C@@H]1CN(c2c(F)c(=O)n(C)c3ccc(C#N)nc23)CCN1C(c1ccc(F)cc1)c1ccc(F)cc1` [Example 174, (R)-8-(4-(bis(4-fluorophenyl)methyl)-3-ethylpiperazin-1-yl)-7-fluoro-5-methyl-6-oxo-5,6-dihydro-1,5-naphthyridine-2-carbonitrile]: the EC50 in the assay with Human venous whole blood (Homo sapiens, 24 h) came to 2200 nM; with naïve human CD8 T cells (Homo sapiens, T-cell, 20 h), 34 nM. In addition, the IC50 stood at 820 nM on human DGKα; 110 nM in assay [1] (Mus musculus, MC-38); 430 nM on human DGKζ.

In the case of `CC[C@@H]1CN(c2cc(=O)n(C)c3ccc(C#N)nc23)CCN1C(c1ccc(Cl)cc1)c1ccc(Cl)cc1` [Example 180, (R)-8-(4-(bis(4-chlorophenyl)methyl)-3-ethylpiperazin-1-yl)-5-methyl-6-oxo-5,6-dihydro-1,5-naphthyridine-2-carbonitrile], the EC50 was determined as 830 nM in the assay with Human venous whole blood (Homo sapiens, 24 h) and 70 nM with naïve human CD8 T cells (Homo sapiens, T-cell, 20 h). Also, the half-inhibitory concentration (IC50) is 4100 nM on human DGKα; 400 nM in assay [1] (Mus musculus, MC-38); 1500 nM at human DGKζ.

With `Cn1c(=O)cc(N2CCN(C(c3ccc(F)cc3)c3ccc(F)cc3)C(C(C)(C)F)C2)c2nc(C#N)ccc21` (single isomer, unassigned) [Example 81, 8-(4-(bis(4-fluorophenyl)methyl)-3-(2-fluoropropan-2-yl)piperazin-1-yl)-5-methyl-6-oxo-5,6-dihydro-1,5-naphthyridine-2-carbonitrile], the 50% effective concentration (EC50) worked out at 8700 nM with Human venous whole blood and 1700 nM with naïve human CD8 T cells (Homo sapiens, T-cell, 20 h). Also, the figures for the IC50 (on human DGKα; in assay [1]; at human DGKζ) were 25000 nM, 580 nM and 16000 nM, respectively.

As to `C[C@@H]1CN(c2cc(=O)n(C)c3ccc(C#N)nc23)[C@@H](C)CN1C(c1ccc(F)cc1)c1ccc(Cl)cc1` (single isomer, unassigned) [Example 302], the EC50 worked out at 570 nM in the assay on Human venous whole blood (Homo sapiens, 24 h) and 23 nM in the assay with naïve human CD8 T cells. Moreover, the half-inhibitory concentration (IC50) on human DGKα is 170 nM; in assay [1], 24 nM; on human DGKζ, 640 nM.

For the compound `CC[C@@H]1CN(c2c(C#N)c(=O)n(C)c3ccc(C#N)nc23)CCN1C(c1ccc(F)cc1)c1ccc(F)cc1` [Example 173, (R)-8-(4-(bis(4-fluorophenyl)methyl)-3-ethylpiperazin-1-yl)-5-methyl-6-oxo-5,6-dihydro-1,5-naphthyridine-2,7-dicarbonitrile], the EC50 in the assay on Human venous whole blood (Homo sapiens, 24 h) stood at 990 nM; in the assay on naïve human CD8 T cells (Homo sapiens, T-cell, 20 h) it was 25 nM. For the same compound, the IC50 at human DGKα came to 950 nM; in assay [1] (Mus musculus, MC-38), 45 nM; at human DGKζ, 1400 nM.

`C[C@@H]1CN(c2c(C#N)c(=O)n(C)c3cccnc23)[C@@H](C)CN1C(c1ccc(F)cc1)c1ccc(F)cc1` [Example 160, 4-((2S,5R)-4-(bis(4-fluorophenyl)methyl)-2,5-dimethylpiperazin-1-yl)-1-methyl-2-oxo-1,2-dihydro-1,5-naphthyridine-3-carbonitrile]: the EC50 in the assay with Human venous whole blood (Homo sapiens, 24 h) is 20000 nM; with naïve human CD8 T cells (Homo sapiens, T-cell, 20 h), 10000 nM. Moreover, the IC50 at human DGKα was determined as 2400 nM; in assay [1] (Mus musculus, MC-38), 10000 nM; at human DGKζ, 44000 nM.

Regarding `C[C@H]1CN(c2cc(=O)n(C)c3ccc(C#N)nc23)CCN1C(c1ccc(F)cc1)c1ccc(F)cc1` [Example 35, (S)-8-(4-(bis(4-fluorophenyl)methyl)-3-methylpiperazin-1-yl)-5-methyl-6-oxo-5,6-dihydro-1,5-naphthyridine-2-carbonitrile], the EC50 in the assay with Human venous whole blood (Homo sapiens, 24 h) amounted to 2200 nM; in the assay on naïve human CD8 T cells (Homo sapiens, T-cell, 20 h), 61 nM. The IC50 at human DGKα was found to be 21000 nM; in assay [1] (Mus musculus, MC-38), 1100 nM; at human DGKζ it was 770 nM.

For the compound `Cn1c(=O)cc(N2CCN(C(c3ccc(F)cc3)c3ccc(F)cc3)C(CO)C2)c2nc(C#N)ccc21` (single isomer, unassigned) [Example 2, 8-(4-(bis(4-fluorophenyl)methyl)-3-(hydroxymethyl)piperazin-1-yl)-5-methyl-6-oxo-5,6-dihydro-1,5-naphthyridine-2-carbonitrile], the EC50 with Human venous whole blood is 2700 nM; with naïve human CD8 T cells (Homo sapiens, T-cell, 20 h) it was 120 nM. The IC50 was found to be 2600 nM on human DGKα; 210 nM in assay [1] (Mus musculus, MC-38); 3300 nM on human DGKζ.

With `C[C@@H]1CN(c2c([N+](=O)[O-])c(=O)n(C)c3ccc(C#N)nc23)[C@@H](C)CN1C(c1ccc(F)cc1)c1ccc(F)cc1` [Example 161, 8-((2S,5R)-4-(bis(4-fluorophenyl)methyl)-2,5-dimethylpiperazin-1-yl)-5-methyl-7-nitro-6-oxo-5,6-dihydro-1,5-naphthyridine-2-carbonitrile], the EC50 was determined as 8600 nM in the assay on Human venous whole blood (Homo sapiens, 24 h) and 520 nM in the assay with naïve human CD8 T cells (Homo sapiens, T-cell, 20 h). Further, the IC50 on human DGKα worked out at 68000 nM; in assay [1] (Mus musculus, MC-38), 1500 nM; at human DGKζ, 29000 nM.

The values above are taken from patent publication US10669272B2, “Substituted naphthyridinone compounds useful as T cell activators” (BRISTOL-MYERS SQUIBB COMPANY, priority 2018, dated 2020).
